# Data from US20230114107A1, “COMBINATION ANTI-CANCER THERAPIES WITH INDUCERS OF IRON-DEPENDENT CELLULAR DISASSEMBLY” (Flagship Pioneering Innovations V, Inc., priority 2019, published 2023).
# What was measured:
# [1] = tested on: NFKB reporter in THP1-Dual cells; experiment: NFKB reporter activity in THP1-Dual monocytes co-cultured with treated A20 cells; format: cell-based, human
# Method: A20 B-cell leukemia cells were treated with either control (DMSO) or various doses of RSL3, for 24 hours prior to co-culture with THP1-Dual cells for an additional 24 hours. RSL3 was purchased from Selleckchem (Houston, Tex.) and dissolved in DMSO. Subsequently, the THP1 supernatants were assessed for NFKB or IRF reporter activity.
# A20 cells were acquired from ATCC and THP1-Dual cells acquired from InvivoGen (San Diego, Calif.). Both cell types were cultured in 96-well plates for the duration of the assay. 50,000 A20 cells were plated 24 hours prior to dosing with RSL3, with a final DMSO concentration of 0.5%. 24 hours post-treatment, THP1-Dual cells (25,000 cells/well) were added to the A20 cells. 24 hours later, 30 μl of supernatant was mixed with either 200 μl QuantiBlue (InvivoGen, San Diego, Calif.) or 50 μl QuantiLuc and absorbance or luminescence was recorded on a Molecular Devices plate reader.
# A20 lymphoma cells were treated with various doses (e.g. 0.002, 0.005, 0.014, 0.041, 0.123, 0.370, 1.111, 3.333 and 10 μM) of a GPX4 inhibitor (RSL3, ML162 or ML210) in the presence or absence of 1 μM Ferrostatin-1 for 24 hours. ML162 was purchased from Cayman Chemical Company Inc and resuspended in DMSO. ML210 was purchased from Sigma-Aldrich and resuspended in DMSO. A20 lymphoma cells were also treated with DMSO as a negative control. After treatment with DMSO or a GPX4 inhibitor for 24 hours, the A20 lymphoma cells were co-cultured with THP1-Dual cells for an additional 24 hours. Subsequently, the THP1 supernatant was assessed for NFKB reporter activity. A20 cells were acquired from ATCC and THP1-Dual cells were acquired from InvivoGen (San Diego, Calif.). Both cell types were cultured in 96-well plates for the duration of the assay.
# [2] = tested on: Jurkat T cell leukemia cells; experiment: Viability of Jurkat T cell leukemia cells after treatment; format: cell-based; settings: various doses, 24 hours; FIG. 5A
smiles,measurement,setting,value
COC(=O)c1ccc([C@H]2c3[nH]c4ccccc4c3C[C@H](C(=O)OC)N2C(=O)CCl)cc1 [RSL3],NFKB signaling in THP1 monocytes,"[1]; A20 cells treated 24 hours, co-culture 24 hours, vs DMSO, FIG. 6B",elicited
same,"NFKB activity in THP1 cells, dose dependence","[1]; A20 lymphoma cells treated with GPX4 inhibitor, FIG. 10B, 11B, 12B",increased NFKB activity in THP1 cells in a dose dependent manner
same,viability of Jurkat T cell leukemia cells,[2],negatively affected the viability
